SMILES strings stand for the structures. “Also recorded” adds a separate entry of the source.

Data set [1] deals with C6 Rat-Glioma grown as cancer stem cells spheres. As to the kind of experiment: AlamarBlue cell proliferation assay after radiosensitizer and irradiation, C6 cancer stem cell spheres. In kind it is cell-based. The conditions noted are these: 0.1 μM; irradiation 10 Gy; 5 days post irradiation; FIG. 3B, P<0.049. How it is done:
(§1) Rat glioma cell line: C6 (ATCC number: CCL107)
To obtain tumor stem cells, cells were cultured in stem cell conditioned media. Briefly, breast and glioma cancer cells were cultured in serum-free DMEM media containing […] bovine insulin, 100 μg/ml human transferrin, 100 μg/ml BSA, 60 ng/ml progesterone, 16 μg/ml putrescine, 40 μg/ml sodium selenite, 63 μg/ml N-acetylcysteine, 5 μM forskolin, 50 units/ml penicillin, and 50 μg/ml streptomycin, 10 ng/ml bFGF, and 10 ng/ml PDGF. In all experiments, cells were maintained in 100 mm or 96 well plate culture dishes at 37° C. in a humidified […] and were protected from light.
Three hypericin derivatives were used in the assay, including hypericin tetrasulfonic acid (HyTS); Tetrabromo hypericin (TBrHy); and Hexamethyl hypericin (HxMeHy). […]
In all cases, control and tumor cells were exposed to ionizing radiation (Siemens X-ray device with 250 kV or with LINAC) at 24 h after the incubation with Hyperecin, Photofrin II or Hypericin derivatives indicated below. […] The response of the tumor to the radiation treatment was evaluated by determining growth delay using the described cell proliferation assay. […]
(§2) Unless indicated otherwise, the tumor cell lines were cultured at a starting density of 1×10^5 cells/mL in DMEM and 10% FCS. […] Absorbance was measured at 570 nm and 600 nm using a micro-titer plate reader. […]
On the technique in general: The colour change of resazurin is a common sign of viable cells or microbes.

The subject of a further data set is Dayo-human Glioma tumor. As to the kind of experiment: AlamarBlue cell proliferation assay after radiosensitizer and irradiation, Dayo. Conditions: 0.1 μM; FIG. 4B, P<0.01. In kind it is cell-based. The procedure: Human glioma cell lines: Daoy (ATCC number: HTB-186) and
(§3) Human colorectal cancer cell line: HT-29 (ATCC number: HTB-38). All cells were cultured routinely in DMEM supplemented with 10% FCS.
(§4) Three hypericin derivatives were used in the assay, including hypericin tetrasulfonic acid (HyTS); Tetrabromo hypericin (TBrHy); and Hexamethyl hypericin (HxMeHy). In addition, as control, hypericin and/or Photofrin II as well as cells exposed only to radiation, i.e. without a radiosensitizing agent.
(§5) The hypericin, hypericin derivatives and photofrin II were used in doses ranging from 0.1 μM up to 2 μM. All compounds were dissolved in DMSO, and were protected from light.
(§6) In all cases, control and tumor cells were exposed to ionizing radiation (Siemens X-ray device with 250 kV or with LINAC) at 24 h after the incubation with Hyperecin, Photofrin II or Hypericin derivatives indicated below. The total delivered radiation dose was a 10 Gy, provided in a single irradiation session on the second day of culture. The response of the tumor to the radiation treatment was evaluated by determining growth delay using the described cell proliferation assay.
(§7) Cell proliferation assay using AlamarBlue
as §2

Data set [2] relates to C6 Rat-Glioma grown in monolayer. As to the kind of experiment: AlamarBlue cell proliferation assay after radiosensitizer and irradiation, C6 monolayer. In kind it is cell-based. Conditions: 0.1 μM. How it is done:
The following cell lines were originally obtained from the American Type Culture collection (ATTC):
as §1, §3, §4, §5
In all cases, control and tumor cells were exposed to ionizing radiation (Siemens X-ray device with 250 kV or with LINAC) at 24 h after the incubation with Hyperecin, Photofrin II or Hypericin derivatives indicated below. […] The response of the tumor to the radiation treatment was evaluated by determining growth delay using the described cell proliferation assay.
as §7, §2

Data set [3] can be described thus: Treatment toxicity: body weight and overall behaviour (Example 4A). Type of data set: in vivo, nude mice. The conditions noted are these: 10 mg/kg. How it is done:
(§8) Mice injected with 5% DMSO vehicle served as the control untreated group. Immediately after the injections, the mice were placed in the dark. For each group of radiosensitizing agent treated mice, half of the treated mice were then treated with a 10 Gy dose of radiation, initiated two hours after the administration of the radiosensitizing agents.
Treatment toxicity was evaluated using two parameters, (i) measuring mice's body weight and (ii) monitoring overall mice behaviour, both parameters were measured twice weekly.

Data set [4] deals with MCF-7 human breast carcinoma grown as cancer stem cells spheres. Put plainly: Example 2B AlamarBlue proliferation, MCF7 cancer stem cells. Type of data set: cell-based. How it is done: (§9) Linear cell (Lin) HT29 and MCF7 human breast carcinoma, were obtained from the American Type Culture Collection (ATCC).
Enrichment of the cancer stem cells (CSCs) population was done by incubating linear cells in a DMEM/F-12 (HAM) 1:1 medium supplement with Insulin-Transferin-Soldium Selenite, and growth factors specific for each cell line. Cells considered enriched for CSCs after 10-15 days in CSCs medium.
(§10) Three photosensitizing agents were used, Hypericin (Hy), Tetrabromo hypericin (TBrHy), and hypericin tetrasulfonic acid (HyTS) in the following concentrations: 0.1 μM, 1 μM and 2 μM. Drugs were protected from light for all time. Control cells were treated with 0.1% DMSO (vehicle).
(§11) Linear and CSC were exposed to 3 Gy irradiation daily for four consecutive days or to a single dose of 10 Gy radiation. Radiation was initiated one day after treatment with the hypericin or hypericin derivatives.
(§12) Linear and CSCs were cultured in a 96 plate in triplicates. Each cell line was treated with the three radiosensitizing agents in the indicated doses. In addition culture cells were exposure to radiation. A day before the irradiation, the radiosensitizing agents were added to the culture. Cells were allowed to grow over a period of 5 days using the method of AlamarBlue™ reduction assay. 10% Alamar Blue solution added to each well. Cells viability was measured using Eliza Reader at two different wavelengths: 570 nm and 600 nm, and the appropriate equation was calculated to reflect cell viability.

The next data set has as its system U87 human glioma tumors. Put plainly: U87 human glioma tumors implanted in nude mice, tumor growth (Example 4A). In kind it is in vivo. The conditions noted are these: 10 mg/kg + 10 Gy radiation. How it is done: as §8
Overall, eight groups of treatment were evaluated as follows:
Tumor growth was evaluated by measuring the tumor's volume twice weekly.

For data set [5], the system named is MCF-7 human breast carcinoma grown as monolayer. Put plainly: Example 2B AlamarBlue proliferation, MCF7 linear cells. In kind it is cell-based. Conditions: 0.1-2 μM; single dose 10 Gy; FIG. 6C. How it is done:
as §9
Cells were cultured in Dulbecco's Modified Eagle Medium (DMEM), supplemented with 10% fetal calf serum (FCS) and antibiotics.
as §10, §11, §12

For data set [6] the following is noted: brain sections of treated mice, fluorescence 550-650 nm.
The test system of data set [7] is PANC01 human pancreatic adenocarcinoma cells. As to the kind of experiment: PANC01 human pancreatic adenocarcinoma tumors in CB.17 SCID mice, tumor volume (Example 4C). Conditions: 10 mg/kg + 10 Gy radiation; CB.17 SCID mice; FIG. 8B. In kind it is in vivo. The procedure: Mice were injected with the radiosensitizing agent, and immediately after were placed in the dark. Radiation was conducted 2 hours after radiosensitizing administration. […] Tumor volume was measured prior to the treatment and thereafter twice weekly.

Data set [8] deals with HT29-human colon carcinoma. Put plainly: AlamarBlue cell proliferation assay after radiosensitizer and irradiation, HT29. In kind it is cell-based. The conditions noted are these: 0.1 μM; FIG. 4E, P<0.05. The procedure: as §3, §4, §5, §6, §7, §2
In data set [9] the test system is U87 Tumors. The conditions noted are these: wavelength of 665 nm; with or without radiation. How it is done:
U87 Tumors were resected when tumors reached end-point (1500 mm^3), minced, and digested in 4 mg/ml collagenase III, 2 mg/ml hyaluronidase, and 2 mg/ml collagenase IV in serum free DMEM, for 20 min, at 37° C. Cells were then filtered through a 40 μm sieve, and washed twice with PBS to obtain single U87 cell suspension.
The single U87 tumor cell suspensions were then acquired on Cyan ADP flow cytometer (Beckman Coulter) and analyzed with Summit (Beckman Coulter) software.
The FL8 channel, (wavelength of 655/20 nm) was used to detect differences between positive and negative cells. From each sample, at least 50,000 cells were acquired.
(§13) These studies were aimed at assessing the localization of radiosensitizing agents and were conducted by two complementary techniques; the first in implanted U87 human glioma tumors using UV lamp and the second in extracted U87 tumors using Flow Cytometry techniques.

For data set [10], the system named is U87 Tumors. Conditions: during the 2 hours prior to radiation. How it is done:
U87 Tumors were implanted subcutaneously in nude mice and then examined under a UV light lamp and the colour intensity was visualized.
as §13

On to `COc1cc(C)c2c3c(C)cc(OC)c4c(=O)c5c(OC)cc(OC)c6c7c(OC)cc(OC)c8c(=O)c1c2c(c87)c(c43)c56` [HxMeHy, Hexamethyl hypericin], for which the “proliferation of C6 glioma cells grown as CSCs (AlamarBlue, fold increase)” value in data set [1] is “statistically inhibited the proliferation”. Moreover, in the data set with Dayo-human Glioma tumor, the “radiosensitizing effect on Dayo tumor (proliferation on day 5)” value is reported as “effective radiosensitizing agent”. Also, in data set [2] (FIG. 4A), the “radiosensitizing effect on C6 brain cancer (proliferation on day 5)” value is “effective radiosensitizing agent”. Moreover, the “proliferation of C6 glioma cells in monolayer (AlamarBlue, fold increase)” value in [2] (irradiation 10 Gy, 5 days post irradiation, FIG. 3A, P<0.05) was “statistically inhibited the proliferation”.
On to `Cc1c(Br)c(O)c2c(=O)c3c(O)c(Br)c(O)c4c5c(O)c(Br)c(O)c6c(=O)c7c(O)c(Br)c(C)c8c1c2c(c34)c(c78)c65` [TBrHy, Tetrabromo hypericin], for which the tolerability of treatment entry in [3] (alone or in combination with radiation, nude mice) is “well tolerated”. Further, the “change in mice body weight and mice behaviour” value in data set [3] (measured twice weekly) is “no significant change”. Further, in data set [4] (0.1-2 μM, single dose 10 Gy, FIG. 6D), the “inhibiting proliferation of MCF7 human breast cancer cells grown as stem cells” value is given as “effective in inhibiting the proliferation”. For the same compound, the “effect in MCF7 cancer stem cells compared with monolayer” value in [4] (FIGS. 6C and 6D) was “more pronounced”. Besides, the “tumor growth of U87 tumors, agent combined with radiotherapy” value with U87 human glioma tumors (nude mice, FIG. 7) is “most effective radiosensitizing agent; also recorded: better anti-tumor activity”. The “tumor removal in one mouse” value with U87 human glioma tumors (one mouse, 4 days after treatment) is on record as “completely removed”. The “inhibiting proliferation of MCF7 human breast cancer cells grown as monolayer” value in data set [5] was “effective in inhibiting the proliferation”. For the same compound, in data set [6], the BBB penetration entry was “penetrated the BBB”. For the same compound, the “tumor volume of PANC1 pancreatic tumors, agent with radiation” value in data set [7] is “most potent radiosensitizing agent; also recorded: enhanced anti-tumor activity”. The “radiosensitizing effect on colon cancer HT29 (proliferation on day 5)” value in data set [8] is recorded as “effective radiosensitizing agents”. Besides, the “fluorescent signal of tumor cells by flow cytometry” value in the data set on U87 Tumors [9] is “fluorescent signal was detected”. Further, in the data set on U87 Tumors [10], the “colour of tumors under UV light” value is recorded as “colored in red”.

The values above are taken from US20130267757A1, “ANTH[…] USE AS RADIOS[…] CANCER TREATMENT” (Sensit Science Ltd., priority 2010, published 2013).
